Test systems include NCI-H226; SNB-19; M14; SK-MEL-2; KM12; CCRF-CEM; MDA-N; SK-MEL-5; HL-60; IGROV-1; NCI-H460; MCF7; RXF 393; NCI-H522; SNB-75; OVCAR-3; MOLT-4; UACC-257; HCT-15; MDA-MB-231.
Common to all, as to test: NCI-60 cell line screen, 48 h

The structures appear in SMILES notation.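 Exposure lasted 48 hours, with cells grown in 96-well plates and compounds tested at five concentrations. GI50: concentration for 50% inhibition of growth.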 Calls of active or inactive are those of the source. Cut-off read from the data, not from the text of the source: active = GI50 up to about 1.1 µM and inactive = higher.

Regarding `CCOC(=O)N[C@H]1CCc2cc(OC)c(OC)c(OC)c2-c2ccc(SC)c(=O)cc21`, the GI50 with NCI-H226 is 0.163 µM (active); in the assay on SNB-19 it was 0.108 µM (active); in the assay with M14 it was < 0.01 µM (active); in the assay on SK-MEL-2, < 0.01 µM (active); in the assay with KM12, < 0.01 µM (active); in the assay with CCRF-CEM, < 0.01 µM (active). For the same compound, the GI50 in the assay with MDA-N, in the assay on SK-MEL-5, with HL-60, in the assay on IGROV-1, in the assay on NCI-H460 and with MCF7 was < 0.01 µM (active) throughout. Also, the GI50 in the assay with RXF 393 is < 0.01 µM (active); in the assay on NCI-H522 it was < 0.01 µM (active); in the assay on SNB-75 it was < 0.0434 µM (active); in the assay with OVCAR-3, < 0.01 µM (active); with MOLT-4, < 0.01 µM (active); in the assay on UACC-257, 16.6 µM (inactive). For the same compound, the GI50 in the assay with HCT-15 was < 0.01 µM.
As to `O=C(Nc1ccccc1)Nn1c(-c2cccs2)nc2ccc(I)cc2c1=O`, the GI50 in the assay with NCI-H226 was 28.8 µM (inactive); in the assay with SNB-19, 42.2 µM (inactive); in the assay with M14 it was 35.9 µM (inactive); in the assay with KM12, 31.3 µM (inactive); with CCRF-CEM it was 20.5 µM (inactive); with MDA-N it was 23.2 µM (inactive). The GI50 in the assay on SK-MEL-5 was 17.1 µM (inactive); with HL-60, 1.41 µM (inactive); in the assay on IGROV-1, 19.7 µM (inactive); in the assay with NCI-H460 it was 26.2 µM (inactive); in the assay on MCF7, 29.1 µM (inactive); in the assay on RXF 393 it was 30.4 µM (inactive). In addition, the GI50 is 14.3 µM (inactive) with NCI-H522; 2.74 µM (inactive) in the assay with SNB-75; 11 µM (inactive) in the assay on OVCAR-3; 17.2 µM (inactive) with UACC-257; 31.5 µM in the assay with HCT-15.
Regarding `CCOP(=O)(OCC)C(NC(=O)C(C(F)(F)F)C(F)(F)F)c1ccccc1` (centres undefined), the GI50 is > 100 µM (inactive) in the assay on SNB-19; > 100 µM (inactive) in the assay on M14; > 100 µM (inactive) with SK-MEL-2; > 100 µM (inactive) in the assay with KM12; 36.6 µM (inactive) in the assay on CCRF-CEM; > 100 µM (inactive) in the assay on MDA-N. For the same compound, the GI50 in the assay on SK-MEL-5 is > 100 µM (inactive); in the assay on HL-60, 24.6 µM (inactive); with IGROV-1 it was > 100 µM (inactive); in the assay with NCI-H460, > 100 µM (inactive); in the assay on MCF7 it was 97.9 µM (inactive); in the assay with RXF 393, > 100 µM (inactive). For the same compound, the GI50 with SNB-75 is > 100 µM (inactive); with OVCAR-3, > 100 µM (inactive); with MOLT-4, 67.3 µM (inactive); in the assay on UACC-257, > 100 µM (inactive); with HCT-15, > 100 µM; in the assay with MDA-MB-231, > 100 µM (inactive).
Regarding `O=C(NO)c1ccc(C(=O)NO)cc1`, the GI50 in the assay on NCI-H226 is > 100 µM (inactive); with SNB-19 it was > 100 µM (inactive); in the assay on M14, 97.9 µM (inactive); with KM12 it was 79.8 µM (inactive); in the assay with CCRF-CEM it was 31.3 µM (inactive); in the assay on MDA-N, > 100 µM (inactive). The GI50 with SK-MEL-5 was 81.7 µM (inactive); in the assay on HL-60, 42.7 µM (inactive); in the assay on IGROV-1 it was > 100 µM (inactive); in the assay on NCI-H460 it was > 100 µM (inactive); in the assay on MCF7 it was > 100 µM (inactive); in the assay with RXF 393 it was 50.4 µM (inactive). The GI50 in the assay on SNB-75 is 8.2 µM (inactive); in the assay on OVCAR-3 it was 32.4 µM (inactive); in the assay with MOLT-4, 24.9 µM (inactive); in the assay with UACC-257 it was 56.9 µM (inactive); with HCT-15, > 100 µM; with MDA-MB-231, 43.6 µM (inactive).
Take `CC(=O)N1N=C(c2ccccc2Nc2ccccc2C2=NN(C(C)=O)C(c3ccccc3)O2)OC1c1ccccc1` (centres undefined): the GI50 in the assay on NCI-H226 is > 100 µM (inactive); in the assay on SNB-19, > 100 µM (inactive); in the assay on M14, 56.1 µM (inactive); in the assay with SK-MEL-2 it was 73.3 µM (inactive); with MDA-N, 29 µM (inactive); in the assay on SK-MEL-5, 51.2 µM (inactive). In addition, the GI50 in the assay with IGROV-1 is > 100 µM (inactive); in the assay on NCI-H460, 26.7 µM (inactive); in the assay with MCF7, 11.5 µM (inactive); with RXF 393, 46.8 µM (inactive); in the assay on NCI-H522, 36.1 µM (inactive); with OVCAR-3, > 100 µM (inactive). Also, the GI50 is 4.76 µM (inactive) with MOLT-4, 44.8 µM in the assay on HCT-15 and > 100 µM (inactive) in the assay on MDA-MB-231.
As for `CN(C)c1ccc(/C=N\NC(=O)c2ccccc2Nc2ccccc2C(=O)N/N=C/c2ccc(N(C)C)cc2)cc1`, the GI50 in the assay on NCI-H226 is > 100 µM (inactive); in the assay on SNB-19, > 100 µM (inactive); with M14, 31.7 µM (inactive); in the assay with SK-MEL-2 it was > 100 µM (inactive); with KM12, > 100 µM (inactive); in the assay on CCRF-CEM, > 100 µM (inactive). Further, the GI50 is > 100 µM (inactive) in the assay with MDA-N; 57 µM (inactive) in the assay with SK-MEL-5; > 100 µM (inactive) in the assay on IGROV-1; > 100 µM (inactive) in the assay with NCI-H460; > 100 µM (inactive) with MCF7; > 100 µM (inactive) in the assay on RXF 393. The GI50 is > 100 µM (inactive) in the assay with SNB-75; > 100 µM (inactive) in the assay with OVCAR-3; > 100 µM (inactive) in the assay with MOLT-4; > 100 µM (inactive) in the assay on UACC-257; > 100 µM in the assay with HCT-15; 23.3 µM (inactive) with MDA-MB-231.
With `COc1ccc2cc(C(=O)NCCc3ccccc3)ccc2c1OC`, the GI50 with NCI-H226 is 63 µM (inactive); with SNB-19, 68.1 µM (inactive); with M14, > 100 µM (inactive); in the assay on SK-MEL-2, 71.9 µM (inactive); in the assay on MDA-N it was > 100 µM (inactive); in the assay with SK-MEL-5 it was 97.3 µM (inactive). Besides, the GI50 is > 100 µM (inactive) in the assay with IGROV-1; > 100 µM (inactive) with NCI-H460; > 100 µM (inactive) in the assay on MCF7; 30.5 µM (inactive) in the assay on RXF 393; 46.1 µM (inactive) with OVCAR-3; > 100 µM (inactive) in the assay with MOLT-4. Also, the GI50 was > 100 µM (inactive) in the assay with UACC-257, > 100 µM in the assay with HCT-15 and 33.6 µM (inactive) with MDA-MB-231.
`CC(C)(C)OC[C@H](O)CC#N`: the GI50 in the assay with NCI-H226, with SNB-19, with M14, with SK-MEL-2, in the assay with KM12 and in the assay on CCRF-CEM was > 100 µM (inactive) each time. Moreover, the GI50 with MDA-N, in the assay with SK-MEL-5, with HL-60, in the assay on NCI-H460, in the assay on MCF7 and with RXF 393 was > 100 µM (inactive) each time. For the same compound, the GI50 was > 100 µM (inactive) in the assay with SNB-75; > 100 µM (inactive) with OVCAR-3; > 100 µM (inactive) with MOLT-4; > 100 µM (inactive) with UACC-257; > 100 µM in the assay on HCT-15; > 100 µM (inactive) in the assay on MDA-MB-231.
In the case of `COC(=O)[C@H](Cc1ccccc1)NC(=O)N1CCN(C(=O)N[C@@H](Cc2ccccc2)C(=O)OC)CCN(C(=O)N[C@@H](Cc2ccccc2)C(=O)OC)CC1`, the GI50 with NCI-H226, with SNB-19, in the assay on M14, with SK-MEL-2, in the assay on KM12 and in the assay on CCRF-CEM was > 100 µM (inactive) throughout. The GI50 in the assay with MDA-N, with SK-MEL-5, with HL-60, in the assay on IGROV-1, with NCI-H460 and in the assay on MCF7 was > 100 µM (inactive) each time. The GI50 with RXF 393, in the assay with NCI-H522, in the assay with SNB-75, with OVCAR-3, with MOLT-4 and with UACC-257 was > 100 µM (inactive) throughout. Besides, the GI50 with HCT-15 is > 100 µM.
Take `Cc1cc(C)c(-n2c(C)c(C)c(C#N)c2N)c(C)c1`: the GI50 in the assay on NCI-H226 was 25 µM (inactive); with SNB-19, 87.7 µM (inactive); in the assay with M14 it was 27.5 µM (inactive); in the assay with SK-MEL-2, 19.5 µM (inactive); in the assay with KM12, 36.1 µM (inactive); with CCRF-CEM, 15.3 µM (inactive). The GI50 in the assay with MDA-N is 19.2 µM (inactive); with SK-MEL-5, 14.9 µM (inactive); in the assay on HL-60, 15.1 µM (inactive); in the assay with IGROV-1 it was 37 µM (inactive); in the assay on NCI-H460, 22.4 µM (inactive); with RXF 393 it was 22.1 µM (inactive). Besides, the GI50 was 21 µM (inactive) in the assay on NCI-H522; 31.9 µM (inactive) in the assay on SNB-75; 24.2 µM (inactive) in the assay with OVCAR-3; 15.6 µM (inactive) in the assay on MOLT-4; 18.1 µM (inactive) with UACC-257; 27.9 µM with HCT-15. Further, in the assay on MDA-MB-231, the GI50 was 33.6 µM (inactive).
Turning to `Cc1c(/N=N/c2ccc(Cl)cc2)c(-c2ccccc2)n(C2OC(CO)C(O)C(O)C2O)c(=S)c1C#N` (centres undefined), the GI50 was 12.3 µM (inactive) with SNB-19; 17.4 µM (inactive) with M14; 18.8 µM (inactive) with SK-MEL-2; 16.8 µM (inactive) in the assay on KM12; 10 µM (inactive) in the assay on CCRF-CEM; 18.2 µM (inactive) with MDA-N. Also, the GI50 was 13.1 µM (inactive) in the assay on SK-MEL-5; 32.6 µM (inactive) in the assay with HL-60; 15.1 µM (inactive) in the assay with IGROV-1; 18.8 µM (inactive) in the assay with NCI-H460; 15.2 µM (inactive) in the assay on MCF7; 15 µM (inactive) in the assay with RXF 393. The GI50 is 18.7 µM (inactive) in the assay on SNB-75; 18.5 µM (inactive) with OVCAR-3; 8.04 µM (inactive) in the assay with MOLT-4; 22.1 µM (inactive) with UACC-257; 17.1 µM in the assay on HCT-15; 20.3 µM (inactive) in the assay on MDA-MB-231.

For the origin of these results see ChEMBL document CHEMBL1201862, “PubChem BioAssay data set” (2004).
